For orientation: IC50 means the concentration at which inhibition is half-maximal.

Assay [1] has as its system HepG2. The assay can be described thus: Cytotoxicity against human HepG2 cells assessed as reduction in cell viability by MTT assay. Type of assay: functional, cell-based. (Formazan colour is commonly taken as a measure of viable cells.)
Assay [2] has as its system A549. In words: Cytotoxicity against human A549 cells assessed as reduction in cell viability by MTT assay. Type of assay: functional, cell-based.
In assay [3] the test system is J82. The assay can be described thus: Cytotoxicity in human J82 cells assessed as reduction in cell viability by MTT assay. Type of assay: functional, cell-based.
Assay [4] concerns SMMC-7721. The assay can be described thus: Cytotoxicity against human SMMC-7721 cells assessed as reduction in cell viability by MTT assay. In kind it is functional, cell-based.
The test system of assay [5] is HUVEC. In words: Cytotoxicity against HUVEC assessed as reduction in cell viability by MTT assay. The note with it: Homo sapiens. Type of assay: cell-based.
Assay [6] deals with OVCAR-3. In words: Cytotoxicity against human OVCAR3 cells assessed as reduction in cell viability by MTT assay. In kind it is functional, cell-based.
In assay [7] the test system is OVCAR-3. The assay can be described thus: Induction of apoptosis in human OVCAR-3 cells assessed as late apoptotic cell at 10 uM after 48 hrs by Annexin V-FITC/PI staining based flow cytometry (reference value: 0.118%). In kind it is functional. Background: A flow cytometer gives signals particle by particle.
For assay [8], the system named is OVCAR-3. The assay can be described thus: Induction of apoptosis in human OVCAR-3 cells assessed as viable cell at 10 uM after 48 hrs by Annexin V-FITC/PI staining based flow cytometry (reference value: 98.3%). In kind it is functional.
Assay [9] deals with OVCAR-3. The assay can be described thus: Induction of apoptosis in human OVCAR-3 cells assessed as early apoptotic cell at 10 uM after 48 hrs in presence of 4C-TPPBr by Annexin V-FITC/PI staining based flow cytometry (reference value: 1.58%). In kind it is functional.
Assay [10] deals with OVCAR-3. The assay can be described thus: Induction of apoptosis in human OVCAR-3 cells assessed as early apoptotic cell at 10 uM after 48 hrs by Annexin V-FITC/PI staining based flow cytometry (reference value: 1.58%). Type of assay: functional.
Assay [11] deals with OVCAR-3. In words: Induction of apoptosis in human OVCAR-3 cells assessed as late apoptotic cell at 10 uM after 48 hrs in presence of 4C-TPPBr by Annexin V-FITC/PI staining based flow cytometry (reference value: 0.118%). Type of assay: functional.
The test system of assay [12] is OVCAR-3. The assay can be described thus: Induction of apoptosis in human OVCAR-3 cells assessed as necrotic cell at 10 uM after 48 hrsin presence of 4C-TPPBr by Annexin V-FITC/PI staining based flow cytometry (reference value: 0.00%). The note with it: time 48 hrs. Type of assay: functional.
In assay [13] the test system is OVCAR-3. The assay can be described thus: Induction of apoptosis in human OVCAR-3 cells assessed as necrotic cell at 10 uM after 48 hrs by Annexin V-FITC/PI staining based flow cytometry (reference value: 0.00%). Type of assay: functional.
Assay [14] relates to OVCAR-3. In words: Induction of apoptosis in human OVCAR-3 cells assessed as viable cell at 10 uM after 48 hrs in presence of 4C-TPPBr by Annexin V-FITC/PI staining based flow cytometry (reference value: 98.3%). Type of assay: functional.
Assay [15] deals with OVCAR-3. The assay can be described thus: Induction of heme-mediated cell death in human OVCAR-3 cells assessed as reduction in cell viability at 3 to 30 uM pretreated with succinyl-acetone followed by compound addition by Hoechst 33258 staining based assay. The note with it: dose 3-30 µM.
For assay [16], the system named is OVCAR-3. The assay can be described thus: Induction of apoptosis in human OVCAR-3 assessed as nuclear shrinkage measured after 48 hrs by Hoechst 33258 staining based fluorescence microscopic analysis. In kind it is functional, cell-based. The note with it: dose 3-10 µM.
Assay [17] has as its system OVCAR-3. In words: Induction of ROS generation in human OVCAR-3 cells at 1 to 10 uM measured after 48 hrs in presence of N-acetyl cysteine by DCFH-DA staining based fluorescence microscopy. In kind it is functional, cell-based. The note with it: dose 1-10 µM.
Assay [18] deals with OVCAR-3. In words: Induction of mitochondrial membrane potential loss in human OVCAR-3 cells assessed as mitochondrial depolarization by measuring green fluorescence at 3 uM measured after 48 hrs by JCI staining based fluorescence microscopy (reference value: 3.3 %). In kind it is functional.
For assay [19], the system named is OVCAR-3. In words: Cytotoxicity against human OVCAR-3 cells at 1 to 10 uM measured after 72 hrs in presence of N-acetyl cysteine by MTT assay. Type of assay: functional, cell-based. The note with it: dose 1-10 µM.
Assay [20] deals with OVCAR-3. The assay can be described thus: Induction of apoptosis in human OVCAR-3 assessed as nuclear blebbing measured after 48 hrs by Hoechst 33258 staining based fluorescence microscopic analysis. In kind it is functional, cell-based. The note with it: dose 3-10 µM.
Assay [21] has as its system OVCAR-3. The assay can be described thus: Induction of mitochondrial membrane potential loss in human OVCAR-3 cells assessed as mitochondrial depolarization by measuring green fluorescence at 30 uM measured after 48 hrs by JCI staining based fluorescence microscopy (reference value: 3.3 %). In kind it is functional.
Assay [22] has as its system A549. The assay can be described thus: Potency index, ratio of cisplatin IC50 to test compound IC50 for human A549 cells. Type of assay: functional.
Assay [23] relates to OVCAR-3. The assay can be described thus: Induction of heme-mediated cell death in human OVCAR-3 cells assessed as reduction in cell viability at 3 to 30 uM pretreated with delta-aminolevulinic acid followed by compound addition by Hoechst 33258 staining based assay. The note with it: dose 3-30 µM.
Assay [24] has as its system OVCAR-3. In words: Induction of mitochondrial membrane potential loss in human OVCAR-3 cells assessed as mitochondrial depolarization by measuring green fluorescence at 10 uM measured after 48 hrs by JCI staining based fluorescence microscopy (reference value: 3.3 %). Type of assay: functional.
In assay [25] the test system is OVCAR-3. In words: Induction of ROS generation in human OVCAR-3 cells measured after 48 hrs by DCFH-DA staining based fluorescence microscopy. In kind it is functional, cell-based. The note with it: dose 1-10 µM.
Assay [26] concerns OVCAR-3. The assay can be described thus: Induction of apoptosis in human OVCAR-3 assessed as nuclear rounding measured after 48 hrs by Hoechst 33258 staining based fluorescence microscopic analysis. In kind it is functional, cell-based. The note with it: dose 3-10 µM.
Assay [27] has as its system OVCAR-3. The assay can be described thus: Potency index, ratio of cisplatin IC50 to test compound IC50 for human OVCAR-3 cells. In kind it is functional.
The nature of assay [28]: Selectivity index ratio of IC50 for HUVEC to IC50 for human OVCAR3 cells.

Active and inactive are the calls of the source. The calls are words filed in the database; no cut-off is given here.

Regarding `C[C@H]1[C@H](OC(=O)CCC[P+](c2ccccc2)(c2ccccc2)c2ccccc2)O[C@@H]2O[C@@]3(C)CC[C@H]4[C@H](C)CC[C@@H]1[C@@]24OO3`, the IC50 came to 35.7 µM in assay [1]; 12.2 µM in [2]; 115 µM in assay [3]; 34.2 µM in assay [4]; 116 µM in assay [5]; 15.8 µM in assay [6].

For the molecule `C[C@H]1[C@H](OC(=O)CCC(=O)O)O[C@@H]2O[C@@]3(C)CC[C@H]4[C@H](C)CC[C@@H]1[C@@]24OO3` [ARTESUNATE], the IC50 in assay [1] was determined as 47 µM; in [2] it was 5.4 µM; in [3], 75.7 µM; in [4], 72.3 µM; in assay [5] it was 86.1 µM; in assay [6] it was 67.3 µM.

For `C[C@H]1[C@H](OC(=O)CCC(=O)OCCC[P+](c2ccccc2)(c2ccccc2)c2ccccc2)O[C@@H]2O[C@@]3(C)CC[C@H]4[C@H](C)CC[C@@H]1[C@@]24OO3`, the IC50 stood at 13 µM in assay [1]; 5.5 µM in [2]; 43.8 µM in assay [3]; 23.6 µM in assay [4]; 18.3 µM in assay [5]; 16.6 µM in [6].

As for `C[C@H]1[C@@H](O)O[C@@H]2O[C@@]3(C)CC[C@H]4[C@H](C)CC[C@@H]1[C@@]24OO3` [ARTENIMOL], the Activity was found to be 1.97% in [7]; 94.4% in assay [8]; 2.74% in assay [9]; 3.61% in assay [10]; 1.56% in [11]; 0.01% in assay [12]. Moreover, the values for the Activity in assay [13] and in assay [14] were 0.062% and 95.7%, respectively. Further, the IC50 was found to be 73.6 µM in assay [1]; 27.8 µM in assay [2]; 146 µM in assay [3]; 61.4 µM in assay [4]; 180 µM in assay [5]; 87.2 µM in [6].

As to `C[C@H]1[C@H](OC(=O)CC[P+](c2ccccc2)(c2ccccc2)c2ccccc2)O[C@@H]2O[C@@]3(C)CC[C@H]4[C@H](C)CC[C@@H]1[C@@]24OO3`, the IC50 worked out at 1.2 µM in assay [1]; 26.5 µM in [2]; 78.8 µM in [3]; 62.7 µM in assay [4]; 66.5 µM in assay [5]; 35.7 µM in assay [6].

For `C[C@H]1[C@H](OC(=O)CCCC[P+](c2ccccc2)(c2ccccc2)c2ccccc2)O[C@@H]2O[C@@]3(C)CC[C@H]4[C@H](C)CC[C@@H]1[C@@]24OO3.[Br-]`, the Activity in assay [7] was 4.04%; in [8] it was 85.4%; in assay [16] it was “Dose-dependent effect”; in [18], 17.2%; in [20], “Dose-dependent effect”; in assay [21], 95.5%. Besides, the Activity in assay [10] is 10.5%; in [24], 55.4%; in assay [26], “Dose-dependent effect”; in assay [13], 0.078%. Further, the IC50 in [1] is 5.2 µM; in assay [2] it was 4.7 µM; in assay [3], 41.9 µM; in assay [4], 18 µM; in assay [5] it was 24.5 µM; in [6], 3 µM. Also, the result in assay [15], in [17], in [19] and in assay [23] was inactive. Also, the “Ratio IC50” value in assay [22] was found to be 4.8; in [27], 4.4; in assay [28], 8.2. In addition, the outcome in assay [25] was Active.

Consider `O=C(O)CCCC[P+](c1ccccc1)(c1ccccc1)c1ccccc1.[Br-]`, for which the Activity in assay [7] was found to be 0.625%; in assay [8], 92%; in assay [10], 5.81%; in assay [13], 1.55%.

For the molecule `C[C@H]1[C@H](OC(=O)CCC(=O)OCCCCC[P+](c2ccccc2)(c2ccccc2)c2ccccc2)O[C@@H]2O[C@@]3(C)CC[C@H]4[C@H](C)CC[C@@H]1[C@@]24OO3`, the half-maximal inhibitory concentration (IC50) in assay [1] stood at 16.1 µM; in assay [2], 5.6 µM; in [3], 29.3 µM; in [4], 13 µM; in assay [5] it was 27.5 µM; in assay [6] it was 6.6 µM.

`C[C@H]1[C@H](OC(=O)CCCCC[P+](c2ccccc2)(c2ccccc2)c2ccccc2)O[C@@H]2O[C@@]3(C)CC[C@H]4[C@H](C)CC[C@@H]1[C@@]24OO3.[Br-]`: the IC50 in assay [1] is 5.3 µM; in assay [2], 2.7 µM; in [3] it was 13.9 µM; in [4], 11.9 µM; in [5], 9.1 µM; in assay [6], 7.1 µM. Besides, in assay [22], the “Ratio IC50” value is on record as 4.8.

For the origin of these results see ChEMBL document CHEMBL4732256, “Synthesis and biological activities of novel mitochondria-targeted artemisinin ester derivatives” (Bioorg Med Chem Lett, 2021).
